Measurements reported in PMC12711630 (Cell Reports. Physical Science, 2025).
Values joined by “and” are separate entries in the source; they are usually repeats but may differ in a detail not shown here. Equal entries are not always repeated. Where two headings read alike, the source gives them in different places. Marks after values point to notes of the source that are not given here.

Assays:
[1] = target: T1, (α4)2(β2)3 (HS isoform) α4β2 nAChR WT (Homo sapiens, UniProt P17787+P43681); test: Two-electrode voltage clamp, Xenopus oocytes expressing HS α4β2 nAChR, wild type; type: cell-based; settings: for EC50: varenicline variants series
T1 construct: expressed in transfected cells; host or cells: Xenopus laevis oocytes, nuclear injection of cDNA in plasmid pCI (10 α4 : 1 β2 for LS, 1 α4 : 10 β2 for HS)

[2] = target: T2, (α4)3(β2)2 (LS isoform) α4β2 nAChR WT (Homo sapiens, UniProt P17787+P43681); test: Two-electrode voltage clamp, Xenopus oocytes expressing LS α4β2 nAChR, wild type; type: cell-based
T2 construct: expressed in transfected cells; host or cells: Xenopus laevis oocytes, nuclear injection of cDNA in plasmid pCI (10 α4 : 1 β2 for LS, 1 α4 : 10 β2 for HS)

human α4β2 nAChR = target: T3, human α4β2 nAChR (Homo sapiens, UniProt P17787+P43681); test: [3H]epibatidine radioligand binding (saturation and competition), membranes of transfected HEK 293 cells
T3 construct: expressed in transfected cells; host or cells: HEK 293 cells, transient transfection with JetPEI, membranes

human α3β4 nAChR = target: T4, human α3β4 nAChR (Homo sapiens, UniProt P30926+P32297); test: as above
T4 construct: expressed in transfected cells; host or cells: HEK 293 cells, transient transfection with JetPEI, membranes

human α7 nAChR = target: T5, human α7 nAChR (Homo sapiens, UniProt P36544); test: [125I]α-Bgtx radioligand binding (saturation and competition), membranes of transfected SH-SY5Y cells; settings: competition with [125I]α-Bgtx 2-3 nM, Cheng-Prusoff
T5 construct: expressed in transfected cells; host or cells: SH-SY5Y cells, transient transfection with JetPEI, membranes

[3] = target: T6, (α4)2(β2)3 (HS isoform) α4β2 nAChR (Homo sapiens, UniProt P17787+P43681); test: Inhibition of ACh EC80 current responses, Xenopus oocytes, HS isoform; type: cell-based
T6 construct: expressed in transfected cells; host or cells: Xenopus laevis oocytes, nuclear injection of cDNA in plasmid pCI (10 α4 : 1 β2 for LS, 1 α4 : 10 β2 for HS)

[4] = target: T7, (α4)3(β2)2 (LS isoform) α4β2 nAChR (Homo sapiens, UniProt P17787+P43681); test: Inhibition of ACh EC80 current responses, Xenopus oocytes, LS isoform; type: cell-based
T7 construct: expressed in transfected cells; host or cells: Xenopus laevis oocytes, nuclear injection of cDNA in plasmid pCI (10 α4 : 1 β2 for LS, 1 α4 : 10 β2 for HS)

5-HT3A receptor [5] = target: T8, 5-HT3A receptor (Homo sapiens, UniProt P46098); test: Inhibition of [3H]GR65630 binding, transfected HEK293 cell membranes; settings: for IC50: n=3
T8 sequence (P46098 24-478): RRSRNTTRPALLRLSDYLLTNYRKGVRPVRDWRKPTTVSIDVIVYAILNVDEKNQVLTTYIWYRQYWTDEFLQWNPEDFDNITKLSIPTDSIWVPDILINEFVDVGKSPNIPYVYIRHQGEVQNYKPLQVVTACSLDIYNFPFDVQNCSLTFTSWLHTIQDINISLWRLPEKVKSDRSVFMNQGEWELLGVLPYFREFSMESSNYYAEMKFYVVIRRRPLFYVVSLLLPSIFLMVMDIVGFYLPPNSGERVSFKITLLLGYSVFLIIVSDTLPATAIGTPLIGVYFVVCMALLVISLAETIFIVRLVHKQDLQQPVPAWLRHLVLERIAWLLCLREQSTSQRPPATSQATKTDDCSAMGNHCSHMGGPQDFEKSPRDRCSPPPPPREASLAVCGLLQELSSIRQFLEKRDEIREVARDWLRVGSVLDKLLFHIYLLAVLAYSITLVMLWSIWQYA

5-HT3A receptor [6] = target: T8, 5-HT3A receptor; test: FlexStation fluorescent membrane-potential dye assay, transfected HEK 293 cells; type: cell-based; settings: for functional response at 5-HT3A receptors: concentrations up to 30 µM; for EC50: n=4
[7] = Spectrophotometric titration pKa determination; settings: for protonated fraction of ammonium center: at pH 7.5
[8] = target: T9, (α4)2(β2)3 (HS isoform) α4β2 nAChR β2S133V (Homo sapiens, UniProt P17787+P43681, S133V); test: Two-electrode voltage clamp, Xenopus oocytes, HS α4β2 nAChR β2S133V; type: cell-based
T9 construct: expressed in transfected cells; host or cells: Xenopus laevis oocytes, nuclear injection of cDNA in plasmid pCI

[9] = target: T10, (α4)2(β2)3 (HS isoform) α4β2 nAChR α4T183V (Homo sapiens, UniProt P17787+P43681, T183V); test: Two-electrode voltage clamp, Xenopus oocytes, HS α4β2 nAChR α4T183V; type: cell-based
T10 construct: expressed in transfected cells; host or cells: Xenopus laevis oocytes, nuclear injection of cDNA in plasmid pCI

[10] = target: T11, (α4)2(β2)3 (HS isoform) α4β2 nAChR α4T139V (Homo sapiens, UniProt P17787+P43681, T139V); test: Two-electrode voltage clamp, Xenopus oocytes, HS α4β2 nAChR α4T139V; type: cell-based
T11 construct: expressed in transfected cells; host or cells: Xenopus laevis oocytes, nuclear injection of cDNA in plasmid pCI

[11] = target: T12, (α4)2(β2)3 (HS isoform) α4β2 nAChR β2S133Vα4T183V (Homo sapiens, UniProt P17787+P43681, S133V/T183V); test: Two-electrode voltage clamp, Xenopus oocytes, HS α4β2 nAChR β2S133Vα4T183V; type: cell-based
T12 construct: expressed in transfected cells; host or cells: Xenopus laevis oocytes, nuclear injection of cDNA in plasmid pCI

[12] = target: T13, (α4)2(β2)3 (HS isoform) α4β2 nAChR β2S133Vα4T139V (Homo sapiens, UniProt P17787+P43681, S133V/T139V); test: Two-electrode voltage clamp, Xenopus oocytes, HS α4β2 nAChR β2S133Vα4T139V; type: cell-based
T13 construct: expressed in transfected cells; host or cells: Xenopus laevis oocytes, nuclear injection of cDNA in plasmid pCI

[13] = target: T14, (α4)3(β2)2 (LS isoform) α4β2 nAChR β2S133V (Homo sapiens, UniProt P17787+P43681, S133V); test: Two-electrode voltage clamp, Xenopus oocytes, LS α4β2 nAChR β2S133V; type: cell-based
T14 construct: expressed in transfected cells; host or cells: Xenopus laevis oocytes, nuclear injection of cDNA in plasmid pCI

[14] = target: T15, (α4)3(β2)2 (LS isoform) α4β2 nAChR α4T183V (Homo sapiens, UniProt P17787+P43681, T183V); test: Two-electrode voltage clamp, Xenopus oocytes, LS α4β2 nAChR α4T183V; type: cell-based
T15 construct: expressed in transfected cells; host or cells: Xenopus laevis oocytes, nuclear injection of cDNA in plasmid pCI

[15] = target: T16, (α4)3(β2)2 (LS isoform) α4β2 nAChR α4T139V (Homo sapiens, UniProt P17787+P43681, T139V); test: Two-electrode voltage clamp, Xenopus oocytes, LS α4β2 nAChR α4T139V; type: cell-based
T16 construct: expressed in transfected cells; host or cells: Xenopus laevis oocytes, nuclear injection of cDNA in plasmid pCI

[16] = target: T17, (α4)3(β2)2 (LS isoform) α4β2 nAChR β2S133Vα4T183V (Homo sapiens, UniProt P17787+P43681, S133V/T183V); test: Two-electrode voltage clamp, Xenopus oocytes, LS α4β2 nAChR β2S133Vα4T183V; type: cell-based
T17 construct: expressed in transfected cells; host or cells: Xenopus laevis oocytes, nuclear injection of cDNA in plasmid pCI

[17] = target: T18, (α4)3(β2)2 (LS isoform) α4β2 nAChR β2S133Vα4T139V (Homo sapiens, UniProt P17787+P43681, S133V/T139V); test: Two-electrode voltage clamp, Xenopus oocytes, LS α4β2 nAChR β2S133Vα4T139V; type: cell-based
T18 construct: expressed in transfected cells; host or cells: Xenopus laevis oocytes, nuclear injection of cDNA in plasmid pCI

[18] = system: human 5-HT3 serotonin receptor; settings: cited from earlier work
[19] = cited from earlier work
α4β2 = settings: read-out: affinity at α4β2; cited from earlier work
[20] = co-applied with ACh EC80 300 µM
[21] = mean + SEM, read-out: pIC50, inhibition of [3H]GR65630 binding (converted)
[22] = [3H]GR65630 0.3 nM, read-out: IC50, inhibition of [3H]GR65630 binding

c1ccc2cc3c(cc2c1)C1CNCC3C1 [C2 varenicline 4]
RE [1]: 0.022 ± 0.0033 ^a | fold increase in EC50 vs varenicline 1 [1]: 10 fold | fold reduction of efficacy vs varenicline 1 [1]: 6 fold | EC50 ([1]; Table 3, HS (α4)2(β2)3): 2.64 ± 0.8 µM | RE [2]: 0.102 ± 0.012 ^a | fold increase in EC50 vs varenicline 1 [2]: 10 fold | fold reduction of efficacy vs varenicline 1 [2]: 4 fold | EC50 ([2]; Table 3, LS (α4)3(β2)2, varenicline variants series, read-out: EC50): 11.5 ± 1.74 µM | Ki (human α4β2 nAChR): 0.0143 ± 0.0016 µM | fold decrease in affinity compared to varenicline 1 (human α4β2 nAChR): approximately 30 fold | Ki ratio α3β4/α4β2 (human α3β4 nAChR): 18.7 | Ki (human α3β4 nAChR; competition with [3H]epibatidine 0.25 nM, Cheng-Prusoff): 0.267 ± 0.073 µM | Ki (human α7 nAChR): 1.32 µM | IC50 [3]: 11 ± 1.2 µM | IC50 [4, 20]: 33 ± 14 µM | fold increase of IC50 against [3H]GR65630 compared to varenicline 1 (5-HT3A receptor [5]): 44 fold | IC50 (5-HT3A receptor [5]; [21]): 13.6 µM | functional response at 5-HT3A receptors (5-HT3A receptor [6]): No signiﬁcant responses | pKa (physchem): 9.63 ± 0.08 | protonated fraction of ammonium center [7]: ≥ 90%

O=c1cccc2n1C[C@@H]1CNC[C@H]2C1 [Cytisine 3, cytisine]
RE (relative efficacy, I/ImaxACh) [1]: 0.025 and 0.025 ± 0.004 | RE (relative efficacy, I/ImaxACh) [8]: 0.016 ± 0.002 | RE (relative efficacy, I/ImaxACh) [9]: 0.021 ± 0.003 | RE (relative efficacy, I/ImaxACh) [10]: 0.023 ± 0.001 | RE (relative efficacy, I/ImaxACh) [11]: 0.018 ± 0.003 | RE (relative efficacy, I/ImaxACh) [12]: 0.022 ± 0.009 | EC50 [2]: 2.9 ± 0.8 µM | RE (relative efficacy, I/ImaxACh) [2]: 0.23 and 0.23 ± 0.08 | EC50 [13]: 5.1 ± 1 µM | RE (relative efficacy, I/ImaxACh) [13]: 0.21 ± 0.01 | EC50 [14]: 4.6 ± 1 µM | RE (relative efficacy, I/ImaxACh) [14]: 0.22 ± 0.02 | EC50 [15]: 2.5 ± 0.7 µM | RE (relative efficacy, I/ImaxACh) [15]: 0.19 ± 0.02 | EC50 [16]: 6.9 ± 1.5 µM | RE (relative efficacy, I/ImaxACh) [16]: 0.19 ± 0.01 | EC50 [17]: 5.8 ± 1.4 µM | RE (relative efficacy, I/ImaxACh) [17]: 0.18 ± 0.01 | fold less potent than varenicline 1 [18]: 2,000 fold | pKa (physchem; pKa value): 8.07

c1ccc2nc3c(nc2c1)C1CNCC3C1 [Isovarenicline 5]
RE [1]: 0.0071 ± 0.00086 ^a | fold reduction of efficacy vs varenicline 1 [1]: 20 fold | EC50 ([1]; Table 3, HS (α4)2(β2)3): 13.3 ± 2.5 µM | RE [2]: 0.054 ± 0.013 ^a | fold reduction of efficacy vs varenicline 1 [2]: 7 fold | EC50 ([2]; read-out: EC50): 26 ± 8.5 µM | Ki (human α4β2 nAChR; read-out: Ki α4β2): 5.46 µM | Ki (human α3β4 nAChR): 67.7 µM | Ki ratio α3β4/α4β2 (human α3β4 nAChR): 12 | Ki (human α7 nAChR): 127 µM | IC50 [3]: 70 ± 12 µM | IC50 [4]: 142 ± 21 µM | fold increase of IC50 against [3H]GR65630 compared to varenicline 1 (5-HT3A receptor [5]): 165 fold | IC50 (5-HT3A receptor [5]; [22]): 49.6 µM | functional response at 5-HT3A receptors (5-HT3A receptor [6]): No signiﬁcant responses | pKa (physchem): 8.44 ± 0.09 | protonated fraction of ammonium center [7]: ≥ 90%

c1cnc2nc3c(nc2n1)C1CNCC3C1 [N2 varenicline 6]
RE [1]: 0.0010 ± 0.0001 ^a | RE [2]: 0.0032 ± 0.0023 ^a | IC50 ([3]; co-applied with ACh EC80 30 µM): > 1000 µM | IC50 [4, 20]: > 1000 µM | fold increase of IC50 against [3H]GR65630 compared to varenicline 1 (5-HT3A receptor [5]): 250 fold | IC50 (5-HT3A receptor [5]; [22]): 75.8 µM | functional response at 5-HT3A receptors (5-HT3A receptor [6]): No signiﬁcant responses | pKa (physchem): 7.31 ± 0.05

c1cnc2cc3c(cc2n1)[C@@H]1CNC[C@H]3C1 [Varenicline 1, varenicline, reference compound]
RE ([1]; Table 3, HS (α4)2(β2)3, relative to maximal ACh response): 0.14 ± 0.012 | RE ([2]; Table 3, LS (α4)3(β2)2, relative to maximal ACh response): 0.38 ± 0.025 | reduction of RE vs WT [15]: 50% | IC50 (5-HT3A receptor [5]; [21]): 0.304 µM | EC50 (5-HT3A receptor [6]; EC50, activation of 5-HT3A receptors, membrane-potential sensitive dye): 0.4 µM | EC50 (5-HT3A receptor [6]; pEC50, activation of 5-HT3A receptors, mean + SEM): 0.437 µM | pKa, literature value ([19]; ref Pfizer[80]): 9.2 | pKa, literature value ([19]; ref Rollema et al.[81]): 9.3 | pKa, literature value ([19]; ref Unal et al.[82]): 9.22 ± 0.13 | pKa [7]: 8.9 ± 0.1

c1ccc2c(c1)C1CNCC2C1 [benzo variant, 2,3,4,5-tetrahydro-1H-1,5-methanobenzo[d]azepine]
Ki (α4β2): 0.02 µM
